Results from publication PMC9434702 (Journal of medicinal chemistry, 2022).

How the values were obtained:
Rat plasma stability = assay type: in vitro ADME; conditions: 37 °C, peak area at 60 min vs 0 min
recombinant human Pgp = recombinant human Pgp (Homo sapiens, UniProt P08183); experiment: Pgp-Glo assay; assay type: in vitro ADME; conditions: 100 μM compound; change relative to Na3VO4 samples = Pgp ATPase activity
mGluR2 [1] = target: mGluR2 (Rattus norvegicus, UniProt P31421); experiment: Pretreatment; assay type: in vivo, Sprague–Dawley rats
[2] = Rat liver microsome stability; assay type: in vitro ADME, Sprague–Dawley rat; conditions: NADPH, 37 °C, peak area at 60 min vs 0 min
mGluR2 [3] = target: T1, mGluR2 (Homo sapiens, UniProt Q14416)
mGluR2 [4] = target: T1, mGluR2; conditions: mGluR2 NAM; cited from earlier work
[5] = rat; cited from earlier work
[6] = rat brain; cited from earlier work
[7] = 0.2 mg/kg iv., 1 min before tracer
[8] = 0.2 mg/kg iv., 20 min before tracer
[9] = 0.5 mg/kg iv., 1 min before tracer

T1 sequence (Q14416 19-872): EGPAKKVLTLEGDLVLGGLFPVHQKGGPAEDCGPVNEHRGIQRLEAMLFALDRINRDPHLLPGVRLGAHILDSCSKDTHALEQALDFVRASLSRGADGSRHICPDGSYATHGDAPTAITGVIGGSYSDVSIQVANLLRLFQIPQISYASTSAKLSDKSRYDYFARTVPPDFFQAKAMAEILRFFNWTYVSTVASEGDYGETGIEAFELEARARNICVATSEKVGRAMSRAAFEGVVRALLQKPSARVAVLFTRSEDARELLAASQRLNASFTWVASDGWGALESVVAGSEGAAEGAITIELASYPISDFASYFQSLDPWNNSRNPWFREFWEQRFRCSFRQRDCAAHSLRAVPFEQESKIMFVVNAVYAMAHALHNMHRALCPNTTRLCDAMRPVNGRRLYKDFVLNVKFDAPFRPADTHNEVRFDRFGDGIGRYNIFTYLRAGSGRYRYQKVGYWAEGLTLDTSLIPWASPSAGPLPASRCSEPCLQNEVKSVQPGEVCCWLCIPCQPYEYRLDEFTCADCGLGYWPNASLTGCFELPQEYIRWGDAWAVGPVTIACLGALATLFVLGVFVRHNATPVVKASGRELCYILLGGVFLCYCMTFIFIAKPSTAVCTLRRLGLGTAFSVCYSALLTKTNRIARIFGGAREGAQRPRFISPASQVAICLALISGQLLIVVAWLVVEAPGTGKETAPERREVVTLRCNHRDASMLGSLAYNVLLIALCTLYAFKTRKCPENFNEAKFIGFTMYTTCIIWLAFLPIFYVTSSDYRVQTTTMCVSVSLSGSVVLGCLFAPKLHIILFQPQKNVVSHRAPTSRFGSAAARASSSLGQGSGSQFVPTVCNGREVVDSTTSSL
Chain of mGluR2 (Rattus norvegicus, UniProt P31421) (P31421 19-872): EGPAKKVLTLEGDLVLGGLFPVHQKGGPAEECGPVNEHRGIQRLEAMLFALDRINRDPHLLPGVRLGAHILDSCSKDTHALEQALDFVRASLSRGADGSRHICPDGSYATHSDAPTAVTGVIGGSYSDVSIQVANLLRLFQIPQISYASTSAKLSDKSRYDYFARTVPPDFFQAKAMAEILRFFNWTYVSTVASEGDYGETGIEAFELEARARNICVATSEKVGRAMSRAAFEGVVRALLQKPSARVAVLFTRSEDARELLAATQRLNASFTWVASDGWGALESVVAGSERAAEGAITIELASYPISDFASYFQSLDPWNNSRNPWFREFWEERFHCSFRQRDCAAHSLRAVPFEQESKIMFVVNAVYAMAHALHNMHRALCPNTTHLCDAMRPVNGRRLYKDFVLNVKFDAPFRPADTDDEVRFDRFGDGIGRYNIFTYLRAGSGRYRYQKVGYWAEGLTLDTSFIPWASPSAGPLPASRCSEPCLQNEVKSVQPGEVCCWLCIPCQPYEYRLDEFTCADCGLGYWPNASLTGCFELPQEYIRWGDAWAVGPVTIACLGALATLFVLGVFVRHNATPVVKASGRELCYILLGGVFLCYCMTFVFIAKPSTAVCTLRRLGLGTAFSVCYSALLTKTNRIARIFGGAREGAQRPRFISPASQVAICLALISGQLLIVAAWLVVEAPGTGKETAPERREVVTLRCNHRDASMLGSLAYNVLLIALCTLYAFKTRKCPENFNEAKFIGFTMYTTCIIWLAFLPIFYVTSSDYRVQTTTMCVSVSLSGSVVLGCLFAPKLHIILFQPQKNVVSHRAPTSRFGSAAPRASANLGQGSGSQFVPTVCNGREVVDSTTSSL
Chain of recombinant human Pgp (P08183 whole entry): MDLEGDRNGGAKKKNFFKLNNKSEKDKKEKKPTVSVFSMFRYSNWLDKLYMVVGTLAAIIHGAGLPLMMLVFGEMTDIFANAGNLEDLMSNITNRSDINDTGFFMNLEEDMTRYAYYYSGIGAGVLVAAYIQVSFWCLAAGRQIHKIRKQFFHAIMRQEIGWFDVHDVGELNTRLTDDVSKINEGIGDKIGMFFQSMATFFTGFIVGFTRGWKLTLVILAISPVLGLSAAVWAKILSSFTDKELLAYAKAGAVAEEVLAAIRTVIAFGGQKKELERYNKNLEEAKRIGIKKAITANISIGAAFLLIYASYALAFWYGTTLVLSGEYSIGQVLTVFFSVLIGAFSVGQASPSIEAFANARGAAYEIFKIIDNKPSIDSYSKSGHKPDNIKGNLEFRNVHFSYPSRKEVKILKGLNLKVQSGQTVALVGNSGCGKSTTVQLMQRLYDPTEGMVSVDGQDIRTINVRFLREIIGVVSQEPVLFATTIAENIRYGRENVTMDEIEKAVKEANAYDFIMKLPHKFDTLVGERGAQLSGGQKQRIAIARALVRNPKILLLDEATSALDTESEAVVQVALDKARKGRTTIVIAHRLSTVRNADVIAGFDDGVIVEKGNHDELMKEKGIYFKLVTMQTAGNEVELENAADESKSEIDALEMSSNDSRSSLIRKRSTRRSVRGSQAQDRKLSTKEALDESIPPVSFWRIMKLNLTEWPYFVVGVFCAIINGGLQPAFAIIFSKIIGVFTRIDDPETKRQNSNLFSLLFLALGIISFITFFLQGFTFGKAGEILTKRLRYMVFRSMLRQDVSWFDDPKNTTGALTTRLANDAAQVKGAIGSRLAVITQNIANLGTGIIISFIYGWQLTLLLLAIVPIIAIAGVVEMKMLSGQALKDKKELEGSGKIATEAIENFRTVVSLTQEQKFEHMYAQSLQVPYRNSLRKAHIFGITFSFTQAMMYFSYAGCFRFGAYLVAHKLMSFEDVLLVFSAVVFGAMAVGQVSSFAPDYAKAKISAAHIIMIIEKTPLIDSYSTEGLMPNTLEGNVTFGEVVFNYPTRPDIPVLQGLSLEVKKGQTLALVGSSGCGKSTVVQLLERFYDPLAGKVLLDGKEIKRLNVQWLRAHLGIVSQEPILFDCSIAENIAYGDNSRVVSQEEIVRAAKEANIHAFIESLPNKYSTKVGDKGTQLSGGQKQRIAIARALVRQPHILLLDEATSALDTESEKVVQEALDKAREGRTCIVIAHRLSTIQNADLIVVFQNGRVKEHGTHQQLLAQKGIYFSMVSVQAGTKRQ

SMILES: COc1ccc(-c2cc(C(N)=O)nc3c2CCC(C)(C)O3)c(F)c1 [compound 13, 5-(2-Fluoro-4-methoxyphenyl)-2,2-dimethyl-3,4-dihydro-2H-pyrano[2,3-b]pyridine-7-carboxamide]
- plasma stability (Rat plasma stability): 94.5%
- luminescence change (p/s) (recombinant human Pgp): 1.53 × 10^7 p/s

SMILES: N#Cc1cc(C2=Nc3ccc(Br)cc3NC(=O)C2)ccn1 [compound 26]
- decrease of [11C]13 radioactivity accumulation, among ROIs (mGluR2 [1]; [7]): 41.7 ± 1.1%
- decrease of [11C]13 radioactivity accumulation, cerebellum (least) (mGluR2 [1]; [7]): 39.6%
- decrease of [11C]13 radioactivity accumulation, hypothalamus (highest) (mGluR2 [1]; [7]): 42.6%
- decrease of [11C]13 radioactivity accumulation, average (mGluR2 [1]; [8]): 12.7 ± 1.7%
- decrease of [11C]13 radioactivity accumulation, cerebellum (highest) (mGluR2 [1]; [8]): 15.2%
- decrease of [11C]13 radioactivity accumulation, striatum (lowest) (mGluR2 [1]; [8]): 11.1%

SMILES: CC1(C)CCc2c(-c3ccc(F)cc3F)cc(C(N)=O)nc2O1 [compound 12, 5-(2,4-Difluorophenyl)-2,2-dimethyl-3,4-dihydro-2H-pyrano[2,3-b]pyridine-7-carboxamide]
- plasma stability (Rat plasma stability): > 92%
- microsome stability [2]: > 92%
- luminescence change (p/s) (recombinant human Pgp): 3.07 × 10^7 p/s
- agonist activity at mGluR2 (mGluR2 [3]; cells induced with 1 μg/mL tetracycline, no glutamate): no agonist activity was observed
- concentration at which potent NAM activity begins (mGluR2 [3]; in the presence of increasing concentrations of L-glutamate): ~30 nM

SMILES: Cn1ccc(COc2cnc(C(N)=O)cc2-c2ccc(F)cc2)n1 [compound 9]
- decrease of [11C]13 radioactivity accumulation, average across ROIs (mGluR2 [1]; [9]): 22.4 ± 7.3%
- decrease of [11C]13 radioactivity accumulation, cortex (highest) (mGluR2 [1]; [9]): 38.5%
- decrease of [11C]13 radioactivity accumulation, thalamus (least) (mGluR2 [1]; [9]): 17.1%
- decrease of [11C]13 radioactivity accumulation, total average (mGluR2 [1]; 0.5 mg/kg iv., 20 min before tracer): 14.5 ± 1.5%
- IC50 (mGluR2 [4]): 78 nM
- half-life (t1/2) [5]: 20 min
- plasma clearance (CLp) [5]: 118 mL/min/kg

SMILES: COc1ccc(-c2cc(C(N)=O)nc3cc(CN4C(=O)CCC4=O)ccc23)c(F)c1 [compound 7]
- SUVmax [6]: 0.3
